In patent publication US8242118B2, “Arylsulfonamide derivatives for use as CCR3 antagonists in the treatment of inflammatory and immunological disorders” (Axikin Pharmaceuticals Inc., priority 2001, dated 2012):
Where a name gives a salt, the structure may show the parent alone.

Tests used:
Human CCR3 [1] = target: T1, Human CCR3 (Homo sapiens, UniProt P51677); assay: Receptor binding assay (RBA), [125I]-eotaxin; conditions: human CCR3-transformed K562 cells, 0.1 nM [125I]-eotaxin; compounds of about 40 to 90% purity; read-out: Activity grade RBA (IC50 class)
T1 construct: The cloned CCR3 cDNA was constructed with pcDNA3 vector and transfected into a IC562 cell line; expressed in transfected cells
T1 sequence (P51677 1-355): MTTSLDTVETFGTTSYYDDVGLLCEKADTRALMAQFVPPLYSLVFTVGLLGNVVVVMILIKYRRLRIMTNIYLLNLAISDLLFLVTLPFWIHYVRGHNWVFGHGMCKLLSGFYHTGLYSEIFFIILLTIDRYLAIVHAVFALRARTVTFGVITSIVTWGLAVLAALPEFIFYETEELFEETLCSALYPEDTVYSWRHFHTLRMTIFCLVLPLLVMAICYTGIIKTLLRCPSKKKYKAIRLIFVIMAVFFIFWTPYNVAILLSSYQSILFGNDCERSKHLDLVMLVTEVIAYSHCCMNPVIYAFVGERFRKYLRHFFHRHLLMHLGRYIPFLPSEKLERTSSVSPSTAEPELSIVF
Method: [Determination of IC50 Values of Compounds in Receptor Binding Assay]
• Human CCR3-transformed K562 cells were used. The cloned CCR3 cDNA was constructed with pcDNA3 vector and transfected into a IC562 cell line. The human CCR3-transformed K562 cells were maintained in RPMI-1640 (Cat.#22400-089, Life Technologies) supplemented with 10% FCS (Cat.#A-1115-L, Hyclone), 55 μM 2-mercaptoethanol (Cat.#21985-023, Life Technologies), 1 mM sodium pyruvate (Cat.#11360-070, Life Technologies), 100 units/ml of penicillin G and 100 μg/ml of streptomycin (Cat.#15140-122, Life Technologies), and 0.4 mg/ml of Geneticin (Cat.#10131-035, Life Technologies)(hereinafter called “culture medium”). Before the receptor binding assay, cells were pretreated with 5 mM sodium butyrate (Cat.#193-01522, Wako)-containing the culture medium (2×10^5 cells/ml) for 20-24 hours to increase the expression of CCR3. (2) Receptor Binding Assay (RBA) • Butyrate-pretreated cells, suspended in binding buffer (25 mM HEPES pH 7.6, 1 mM CaCl2, 5 mM MgCl2, 0.5% BSA, 0.1% NaN3) at a cell density of 2×10^6 cells/ml, were added into 60 μl/well in the 96-well round bottom polypropylene plate (Cat.#3365, Costar). Compounds, diluted with the binding buffer (4-times higher concentration of the final concentration), were added into 30 μl/well in the polypropylene plate. [^125I]-labeled human eotaxin (Cat.#IM290, Amersham Pharmacia Biotech), diluted with the binding buffer at the concentration of 0.4 nM (final concentration; 0.1 nM), was added into 30 μl/well in the polypropylene plate. Total 120 μl/well of binding reaction mixture (60 μl/well of cell suspension, 30 μl/well of compound solution, and 30 μl/well of [^125I]-labeled eotaxin) were incubated in the polypropylene plate for 1 hour at room temperature after the incubation, 100 μl/well of the reaction mixture was transferred to a filtration plate (Cat.#MAFB-N0B, Millipore), and washed with the washing buffer (25 mM HEPES pH 7.6, 1 mM CaCl2, 5 mM MgCl2, 0.5% BSA, 0.1% NaN3, 0.5 M NaCl) twice. The 96-well filtration plate was pretreated with 100 μl/well of 0.5% polyethylenimine (Cat.#P-3143, Sigma) for 2-4 hours at room temperature and washed with the washing buffer twice before use. The non-specific binding was determined by parallel incubation in the presence of 500 nM of non-labeled eotaxin (Cat.#23209, Genzyme Techne). The radioactivities remained on the filter were measured by liquid scintillation counter (TopCount™, Packard) after an addition of 45 μl/well of scintillant (Microscint20, Cat.#6013621, Packard). The inhibition percent at each concentration of compound was calculated, and IC50 values were determined from the inhibition curve. [Determination of IC50 Values of Compounds in Calcium Mobilization Assay] (IC50 Ca2+) (1) Cell • Human CCR3-transformed K562 cells were used. The human CCR3-transformed K562 cells were maintained in RPMI-1640 supplemented with 10% FCS, 55 μM 2-mercaptoethanol (Cat.#21985-023, Life Technologies), 1 mM sodium pyruvate, 100 units/ml of penicillin G and 100 μg/ml of streptomycin and 0.4 mg/ml of Geneticin. Before the calcium mobilization assay, cells were pretreated with 5 mM sodium butyrate-containing the culture medium (2×10^5 cells/ml) for 20-24 hours to increase the expression of CCR3. (2) Calcium Mobilization Assay • Butyrate-pretreated cells were loaded with Fluo-3AM (Cat.#F-1242, Molecular Probes) in loading buffer (Hanks' solution Cat.#05906 Nissui, 20 mM HEPES pH 7.6, 0.1% BSA, 1 mM probenecid Cat.#P-8761 Sigma, 1 μM Fluo-3AM, 0.01% pluronic F-127 Cat.#P-6866 Molecular Probes) at a cell density of 1×10^7 cells/ml. Then, cells were washed with calcium assay buffer (Hanks' solution Cat.#05906 Nissui, 20 mM HEPES pH 7.6, 0.1% BSA, 1 mM Probenecid Cat.#P-8761 Sigma). The cell suspension (3.3×10^6 cells/ml) was added into 60 μl/well in the 96-well clear bottom black plate (Cat.#3904, Costar). […]

Human CCR3 [2] = target: T1, Human CCR3; assay: Calcium mobilization assay, eotaxin-stimulated; type: cell-based; conditions: human CCR3-transformed K562 cells, 10 nM eotaxin; compounds of about 40 to 90% purity; read-out: Activity grade Ca2+ (IC50 class)
Method: • Human CCR3-transformed K562 cells were used. The cloned CCR3 cDNA was constructed with pcDNA3 vector and transfected into a IC562 cell line. The human CCR3-transformed K562 cells were maintained in RPMI-1640 (Cat.#22400-089, Life Technologies) supplemented with 10% FCS (Cat.#A-1115-L, Hyclone), 55 μM 2-mercaptoethanol (Cat.#21985-023, Life Technologies), 1 mM sodium pyruvate (Cat.#11360-070, Life Technologies), 100 units/ml of penicillin G and 100 μg/ml of streptomycin (Cat.#15140-122, Life Technologies), and 0.4 mg/ml of Geneticin (Cat.#10131-035, Life Technologies)(hereinafter called “culture medium”). Before the receptor binding assay, cells were pretreated with 5 mM sodium butyrate (Cat.#193-01522, Wako)-containing the culture medium (2×10^5 cells/ml) for 20-24 hours to increase the expression of CCR3. (2) Receptor Binding Assay (RBA) • Butyrate-pretreated cells, suspended in binding buffer (25 mM HEPES pH 7.6, 1 mM CaCl2, 5 mM MgCl2, 0.5% BSA, 0.1% NaN3) at a cell density of 2×10^6 cells/ml, were added into 60 μl/well in the 96-well round bottom polypropylene plate (Cat.#3365, Costar). Compounds, diluted with the binding buffer (4-times higher concentration of the final concentration), were added into 30 μl/well in the polypropylene plate. [^125I]-labeled human eotaxin (Cat.#IM290, Amersham Pharmacia Biotech), diluted with the binding buffer at the concentration of 0.4 nM (final concentration; 0.1 nM), was added into 30 μl/well in the polypropylene plate. Total 120 μl/well of binding reaction mixture (60 μl/well of cell suspension, 30 μl/well of compound solution, and 30 μl/well of [^125I]-labeled eotaxin) were incubated in the polypropylene plate for 1 hour at room temperature after the incubation, 100 μl/well of the reaction mixture was transferred to a filtration plate (Cat.#MAFB-N0B, Millipore), and washed with the washing buffer (25 mM HEPES pH 7.6, 1 mM CaCl2, 5 mM MgCl2, 0.5% BSA, 0.1% NaN3, 0.5 M NaCl) twice. The 96-well filtration plate was pretreated with 100 μl/well of 0.5% polyethylenimine (Cat.#P-3143, Sigma) for 2-4 hours at room temperature and washed with the washing buffer twice before use. The non-specific binding was determined by parallel incubation in the presence of 500 nM of non-labeled eotaxin (Cat.#23209, Genzyme Techne). The radioactivities remained on the filter were measured by liquid scintillation counter (TopCount™, Packard) after an addition of 45 μl/well of scintillant (Microscint20, Cat.#6013621, Packard). The inhibition percent at each concentration of compound was calculated, and IC50 values were determined from the inhibition curve. [Determination of IC50 Values of Compounds in Calcium Mobilization Assay] (IC50 Ca2+) (1) Cell • Human CCR3-transformed K562 cells were used. The human CCR3-transformed K562 cells were maintained in RPMI-1640 supplemented with 10% FCS, 55 μM 2-mercaptoethanol (Cat.#21985-023, Life Technologies), 1 mM sodium pyruvate, 100 units/ml of penicillin G and 100 μg/ml of streptomycin and 0.4 mg/ml of Geneticin. Before the calcium mobilization assay, cells were pretreated with 5 mM sodium butyrate-containing the culture medium (2×10^5 cells/ml) for 20-24 hours to increase the expression of CCR3. (2) Calcium Mobilization Assay • Butyrate-pretreated cells were loaded with Fluo-3AM (Cat.#F-1242, Molecular Probes) in loading buffer (Hanks' solution Cat.#05906 Nissui, 20 mM HEPES pH 7.6, 0.1% BSA, 1 mM probenecid Cat.#P-8761 Sigma, 1 μM Fluo-3AM, 0.01% pluronic F-127 Cat.#P-6866 Molecular Probes) at a cell density of 1×10^7 cells/ml. Then, cells were washed with calcium assay buffer (Hanks' solution Cat.#05906 Nissui, 20 mM HEPES pH 7.6, 0.1% BSA, 1 mM Probenecid Cat.#P-8761 Sigma). The cell suspension (3.3×10^6 cells/ml) was added into 60 μl/well in the 96-well clear bottom black plate (Cat.#3904, Costar). Compounds, diluted (5-times concentration of the final concentration) with the calcium assay buffer, were added into 20 μl/well in the plate 10 minutes before assay. […]

| SMILES | IC50 (Human CCR3 [1]) [µM] | melting point [°C] | IC50 (Human CCR3 [2]) [µM] |
| --- | --- | --- | --- |
| O=[N+]([O-])c1ccc(Oc2ccccc2F)c(S(=O)(=O)N2CCNCC2)c1 [Example 1-14] | 1 to 10 | 118 to 120 | – |
| Cl.O=[N+]([O-])c1ccc(Oc2cccc(F)c2)c(S(=O)(=O)N2CCNCC2)c1 [Example 1-15] | 1 to 10 | 227 to 229 | – |
| Cc1ccc(Oc2ccc([N+](=O)[O-])cc2S(=O)(=O)N2CCNCC2)cc1.Cl [Example 1-16] | > 10 | 188 to 192 | – |
| Cc1cccc(Oc2ccc([N+](=O)[O-])cc2S(=O)(=O)N2CCNCC2)c1.Cl [Example 1-17] | < 1 | 242 to 244 | – |
| O=[N+]([O-])c1ccc(Oc2cccc(Cl)c2Cl)c(S(=O)(=O)N2CCNCC2)c1 [Example 1-82] | 1 to 10 | 173 to 174 | – |
| O=[N+]([O-])c1ccc(Oc2ccc(Cl)c(Cl)c2)c(S(=O)(=O)N2CCNCC2)c1 [Example 1-83] | > 10 | 167 to 168 | – |
| Cc1cc(C)cc(Nc2ccc([N+](=O)[O-])cc2S(=O)(=O)N2CCNCC2)c1 [Example 3-1, N-(3,5-dimethyl-phenyl)-4-nitro-2-(1-piperazinylsulfonyl)aniline dihydrochloride] | < 1 | – | – |

Continued, values first:

| IC50 (Human CCR3 [1]) [µM] | melting point [°C] | IC50 (Human CCR3 [2]) [µM] | SMILES |
| --- | --- | --- | --- |
| > 10 | 123 to 124 | – | Cc1cc(C)cc(Oc2ccc([N+](=O)[O-])cc2S(=O)(=O)N2CCN(Cc3ccccc3)CC2)c1 [Example 4-9] |
| > 10 | 210 to 212 | – | Cc1cc(C)cc(Oc2ccc([N+](=O)[O-])cc2S(=O)(=O)N2CCN(C=O)CC2)c1 [Example 4-10] |
| < 1 | 156 to 158 | – | Cc1cc(C)cc(Oc2ccc([N+](=O)[O-])cc2S(=O)(=O)N2CCC(N3CCCC3)CC2)c1 [Example 4-11] |
| 1 to 10 | 226 | – | CN(C)c1ccc(NS(=O)(=O)c2cc([N+](=O)[O-])ccc2Oc2cc(Cl)cc(Cl)c2)cc1 [Example 4-25] |
| – | 134 | < 1 | CN(C)CC(C)(C)CNS(=O)(=O)c1cc([N+](=O)[O-])ccc1Oc1cc(Cl)cc(Cl)c1 [Example 4-35] |
| – | 160 to 162 | < 1 | CCOC(=O)CCN1CCN(S(=O)(=O)c2cc([N+](=O)[O-])ccc2Oc2cc(Cl)cc(Cl)c2)CC1 [Example 4-37] |
| – | 148 | < 1 | Cc1cc(C)cc(Oc2cc(C)c(Cl)cc2S(=O)(=O)N2CCNCC2)c1.Cl [Example 5-8] |
| – | 144 to 145 | < 1 | N#Cc1ccc(Oc2cc(Cl)cc(Cl)c2)c(S(=O)(=O)N2CCC[C@H]2CN2CCCC2)c1 [Example 13-3] |
| – | 104 | < 1 | CN(c1cccnc1)S(=O)(=O)c1cc(C#N)ccc1Oc1cc(Cl)cc(Cl)c1.Cl [Example 13-10] |
| – | 124 | < 1 | CSCCCN1CCN(S(=O)(=O)c2cc(C#N)ccc2Sc2cc(Cl)cc(Cl)c2)CC1 [Example 17-2] |
| – | 144 to 145 | < 1 | CN(C)CC(C)(C)CN(C)S(=O)(=O)c1cc([N+](=O)[O-])ccc1Sc1cc(Cl)cc(Cl)c1 [Example 26-3] |
